Data from ChEMBL document CHEMBL1155829, “Synthesis and cytotoxic, anti-inflammatory, and anti-oxidant activities of 2',5'-dialkoxylchalcones as cancer chemopreventive agents” (Bioorg Med Chem, 2008).
pIC50: −log10 of the molar value. Activity calls are given as the source filed them. The calls are words filed in the database; no cut-off is given here.

What was measured:
[1] = Cytotoxicity against human Hep3B cells by MTT assay; assay type: functional, cell-based, Hep 3B2
HT-29 = experiment: Cytotoxicity against human HT29 cells by MTT assay; assay type: functional, cell-based
RAW264.7 [2] = experiment: Antiinflammatory activity against mouse RAW264.7 cells assessed as inhibition of LPS-induced nitric oxide production; assay type: functional, cell-based
MCF7 = experiment: Cytotoxicity against human MCF7 cells by MTT assay; assay type: functional, cell-based
A549 [3] = experiment: Cytotoxicity against human A549 cells by MTT assay; assay type: functional, cell-based
[4] = Antioxidant activity assessed as inhibition of superoxide radical-induced DNA damage of pBR322 at 300 uM after 20 mins by gel electrophoresis; assay type: functional
[5] = target: Xanthine dehydrogenase/oxidase (Homo sapiens, UniProt P47989); experiment: Inhibition of xanthine oxidase
[6] = tested on: Radical scavenging activity; experiment: Antioxidant activity assessed as DPPH radical scavenging activity; assay type: functional
RAW264.7 [7] = experiment: Antiinflammatory activity against mouse RAW264.7 cells assessed as inhibition of LPS-induced TNFalpha formation; assay type: functional, cell-based
A549 [8] = experiment: Cell cycle arrest in human A549 cells assessed as accumulation at S phase at 10 uM after 24 hrs by flow cytometry; assay type: functional
A549 [9] = experiment: Cell cycle arrest in human A549 cells assessed as accumulation at G2/M phase at 0.1 uM after 24 hrs by flow cytometry; assay type: functional
A549 [10] = experiment: Cell cycle arrest in human A549 cells assessed as accumulation at G2/M phase at 10 uM after 24 hrs by flow cytometry; assay type: functional
A549 [11] = experiment: Cell cycle arrest in human A549 cells assessed as accumulation at G2/M phase at 0.03 uM after 24 hrs by flow cytometry; assay type: functional
A549 [12] = experiment: Cell cycle arrest in human A549 cells assessed as accumulation at S phase at 0.03 uM after 24 hrs by flow cytometry; assay type: functional
A549 [13] = experiment: Cell cycle arrest in human A549 cells assessed as accumulation at G1 phase at 0.1 uM after 24 hrs by flow cytometry; assay type: functional
A549 [14] = experiment: Cell cycle arrest in human A549 cells assessed as accumulation at G1 phase at 0.03 uM after 24 hrs by flow cytometry; assay type: functional
[15] = Inhibition of tubulin polymerization
A549 [16] = experiment: Cell cycle arrest in human A549 cells assessed as accumulation at G1 phase at 10 uM after 24 hrs by flow cytometry; assay type: functional
A549 [17] = experiment: Cell cycle arrest in human A549 cells assessed as accumulation at S phase at 0.1 uM after 24 hrs by flow cytometry; assay type: functional

Sequence of Xanthine dehydrogenase/oxidase (P47989 whole entry): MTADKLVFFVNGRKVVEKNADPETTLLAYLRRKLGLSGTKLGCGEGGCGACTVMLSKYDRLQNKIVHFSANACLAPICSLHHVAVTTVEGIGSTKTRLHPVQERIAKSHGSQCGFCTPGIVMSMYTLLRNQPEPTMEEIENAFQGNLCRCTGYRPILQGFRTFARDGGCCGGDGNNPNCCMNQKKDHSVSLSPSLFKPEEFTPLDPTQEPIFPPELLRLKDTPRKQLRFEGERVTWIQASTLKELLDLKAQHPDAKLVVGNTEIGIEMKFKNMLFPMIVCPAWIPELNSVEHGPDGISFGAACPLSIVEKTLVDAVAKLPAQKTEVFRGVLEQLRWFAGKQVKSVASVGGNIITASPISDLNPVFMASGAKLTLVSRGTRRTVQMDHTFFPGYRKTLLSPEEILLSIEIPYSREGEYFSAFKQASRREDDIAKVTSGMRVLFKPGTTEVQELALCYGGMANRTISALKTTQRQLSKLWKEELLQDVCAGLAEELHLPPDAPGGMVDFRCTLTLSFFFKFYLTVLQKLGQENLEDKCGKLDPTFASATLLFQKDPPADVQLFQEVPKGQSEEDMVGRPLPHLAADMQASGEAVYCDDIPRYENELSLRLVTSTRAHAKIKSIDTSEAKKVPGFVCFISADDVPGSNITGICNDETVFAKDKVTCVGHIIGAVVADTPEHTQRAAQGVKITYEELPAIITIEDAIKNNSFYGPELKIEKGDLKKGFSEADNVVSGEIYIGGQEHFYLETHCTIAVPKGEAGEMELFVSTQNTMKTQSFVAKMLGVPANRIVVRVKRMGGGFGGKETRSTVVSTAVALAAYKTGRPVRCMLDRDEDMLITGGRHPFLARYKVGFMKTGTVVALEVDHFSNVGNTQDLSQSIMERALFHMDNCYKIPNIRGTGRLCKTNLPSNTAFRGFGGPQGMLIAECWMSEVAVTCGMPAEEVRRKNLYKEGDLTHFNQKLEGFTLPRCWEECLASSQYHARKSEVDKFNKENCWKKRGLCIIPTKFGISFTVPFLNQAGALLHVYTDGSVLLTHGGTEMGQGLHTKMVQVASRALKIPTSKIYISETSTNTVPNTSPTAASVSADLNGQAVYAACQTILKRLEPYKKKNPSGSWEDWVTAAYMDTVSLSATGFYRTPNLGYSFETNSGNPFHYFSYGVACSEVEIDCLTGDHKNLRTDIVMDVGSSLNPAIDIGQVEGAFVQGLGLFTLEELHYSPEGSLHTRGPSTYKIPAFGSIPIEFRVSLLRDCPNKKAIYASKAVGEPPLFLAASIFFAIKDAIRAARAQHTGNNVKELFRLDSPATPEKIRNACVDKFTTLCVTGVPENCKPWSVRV

SMILES	pIC50 [1]	pIC50 (HT-29)	pIC50 (MCF7)	also measured
O=c1[nH]cc(F)c(=O)[nH]1 [FLUOROURACIL]	6.22			
CCCCOc1ccc(OC)cc1C(=O)/C=C/c1ccc(C)s1	4.97	4.21	4.86	pIC50 (RAW264.7 [2]): 4.55
Cc1ccc(/C=C/C(=O)c2cc(OC(C)C)ccc2O)s1	4.09	4.52	4.81	
CCOc1ccc(OCC)c(C(=O)/C=C/c2ccc(C)s2)c1	4.50	5.49	5.85	pIC50 (A549 [3]): 5.36; Activity [4]: Active; pIC50 (RAW264.7 [2]): 4.78; pIC50 [5]: 4.67; Activity [6]: inactive
Cc1ccc(/C=C/C(=O)c2cc(OCC(C)C)ccc2O)s1	4.26	4.51	4.89	
CCCOc1ccc(OC)cc1C(=O)/C=C/c1ccc(C)s1	5.15	4.06	6.10	
CCOc1ccc(O)c(C(=O)/C=C/c2ccc(C)s2)c1	4.04	4.36	4.63	
COc1ccc(C(=O)/C=C/c2ccc(C)s2)c(O)c1O	4.97	4.27	4.68	
Cc1ccc(/C=C/C(=O)c2ccc(O)c(O)c2O)s1		4.44		
CCCCOc1ccc(O)c(C(=O)/C=C/c2ccc(C)s2)c1	4.04	4.15	4.41	
CCCCCOc1ccc(O)c(C(=O)/C=C/c2ccc(C)s2)c1	3.95	4.06	4.32	
CCCOc1ccc(O)c(C(=O)/C=C/c2ccc(C)s2)c1	4.63	3.90	4.67	
CCOc1ccc(OC)cc1C(=O)/C=C/c1ccc(C)s1	6.70	7.00	5.64	pIC50 (RAW264.7 [7]): 6.40; Activity (A549 [8]): 24.271%; Activity (A549 [9]): 5.698%; pIC50 (A549 [3]): 5.20; Activity (A549 [10]): 11.627%; Activity (A549 [11]): 2.104%; Activity [4]: Active; pIC50 [5]: 3.88; Activity (A549 [12]): 27.69%; Activity [6]: inactive; Activity (A549 [13]): 65.919%; Activity (A549 [14]): 70.207%; Activity [15]: Active; Activity (A549 [16]): 64.102%; Activity (A549 [17]): 28.384%
COc1ccc(O)c(C(=O)/C=C/c2ccc(C)s2)c1	4.06	4.15	4.46	
